Data: patent US20040121946A9, “Inducing cellular immune responses to her2/neu using peptide and nucleic acid compositions” (priority 2002, published 2004)
Where a SMILES comes first, the peptide text is derived from it. Where no end group is shown, it is not given here.

Legend:
[1] = system: B7-supertype molecules (B*0702, B*3501, B*5101, B*5301, B*5401); experiment: B7-supertype cross-reactive binding; design: species or system human; details: of five B7-supertype alleles tested
[2] = target: HLA-B*0702 (Homo sapiens, UniProt P01889); assay type: binding; details: Table XXIV, B7 supermotif peptides

| Molecule | No. of B7 Alleles Crossbound [1] | IC50 [2] [nM] |
| --- | --- | --- |
| CC[C@H](C)[C@H](NC(=O)[C@@H]1CCCN1C(=O)[C@H](CCSC)NC(=O)[C@H](Cc1ccc(O)cc1)NC(=O)[C@H](CO)NC(=O)[C@H](CC(C)C)NC(=O)[C@H](CC(=O)O)NC(=O)[C@@H]1CCCN1C(=O)[C@@H](N)CCCCN)C(=O)O [Her2/neu.605] | 1 | 76 |
| CC(C)C[C@H](NC(=O)CNC(=O)[C@H](Cc1ccc(O)cc1)NC(=O)[C@H](CS)NC(=O)[C@@H](NC(=O)[C@H](CCCNC(=N)N)NC(=O)[C@H](C)NC(=O)[C@H](CS)NC(=O)[C@@H]1CCCN1C(=O)[C@@H](N)CCCCN)C(C)C)C(=O)O [Her2/neu.336] (H-KPCARVCYGL-OH) | 1 | 149 |
| CC[C@H](C)[C@H](NC(=O)[C@H](CO)NC(=O)[C@H](CC(C)C)NC(=O)[C@H](CC(=O)O)NC(=O)[C@@H]1CCCN1C(=O)[C@H](CCCCN)NC(=O)[C@@H](NC(=O)CNC(=O)[C@H](CO)NC(=O)[C@@H]1CCCN1C(=O)[C@@H](N)CS)C(C)C)C(=O)O [Her2/neu.600.I11] | 3 | 290 |
| CC(C)C[C@H](NC(=O)[C@H](C)NC(=O)[C@H](CCC(N)=O)NC(=O)[C@H](Cc1c[nH]cn1)NC(=O)[C@@H]1CCCN1C(=O)[C@@H](N)Cc1ccccc1)C(=O)N[C@@H](CC(C)C)C(=O)N[C@@H](Cc1c[nH]cn1)C(=O)N[C@H](C(=O)N[C@@H](C)C(=O)O)[C@@H](C)O [Her2/neu.488.F1] | 3 | 393 |
| FPAEQRASPL [Her2/neu.642.F1] | 3 | 1.4 |
| CC[C@H](C)[C@H](NC(=O)[C@H](CS)NC(=O)[C@H](CCCNC(=N)N)NC(=O)[C@H](CO)NC(=O)CNC(=O)[C@H](CCCCN)NC(=O)[C@H](CS)NC(=O)[C@H](CCSC)NC(=O)[C@@H]1CCCN1C(=O)[C@@H](N)Cc1ccccc1)C(=O)O [Her2/neu.196.F1] (H-FPMCKGSRCI-OH; N-terminus and C-terminus assumed) | 3 | – |

Other lines, results leading:

| No. of B7 Alleles Crossbound [1] | IC50 [2] [nM] | Molecule |
| --- | --- | --- |
| 5 | 367 | CC[C@H](C)[C@H](NC(=O)[C@@H](NC(=O)[C@H](C)NC(=O)[C@H](CO)NC(=O)[C@@H](NC(=O)[C@@H](NC(=O)[C@H](CO)NC(=O)[C@@H](NC(=O)[C@H](CC(C)C)NC(=O)[C@@H]1CCCN1C(=O)[C@@H](N)Cc1ccccc1)[C@@H](C)O)[C@@H](C)CC)[C@@H](C)CC)C(C)C)C(=O)O [Her2/neu.649.F1I11] |
| 4 | 42 | CC(C)C[C@H](NC(=O)[C@H](CO)NC(=O)[C@H](CCCNC(=N)N)NC(=O)[C@H](Cc1ccc(O)cc1)NC(=O)[C@H](Cc1ccccc1)NC(=O)[C@@H](NC(=O)[C@H](CO)NC(=O)[C@H](CC(=O)O)NC(=O)[C@H](CC(C)C)NC(=O)[C@@H]1CCCN1C(=O)[C@@H](N)Cc1ccccc1)[C@@H](C)O)C(=O)O [Her2/neu.998.F1] |
| 3 | 20 | CC[C@H](C)[C@H](NC(=O)[C@H](C)NC(=O)[C@@H]1CCCN1C(=O)[C@H](CC(C)C)NC(=O)[C@@H]1CCCN1C(=O)CNC(=O)[C@H](CCC(=O)O)NC(=O)[C@H](CCCNC(=N)N)NC(=O)[C@@H]1CCCN1C(=O)[C@@H](N)Cc1ccccc1)C(=O)O [Her2/neu.1151.F1I10] |
| 4 | 290 | CC[C@H](C)[C@H](NC(=O)[C@@H](NC(=O)[C@H](CCCNC(=N)N)NC(=O)[C@H](CCSC)NC(=O)[C@H](CCC(N)=O)NC(=O)[C@H](C)NC(=O)[C@H](CCC(N)=O)NC(=O)[C@H](CC(N)=O)NC(=O)[C@@H]1CCCN1C(=O)[C@@H](N)Cc1ccccc1)[C@@H](C)CC)C(=O)O [Her2/neu.706.F1I10] |
| 4 | 6.5 | FPLPAARPI [Her2/neu.1155.F1I9] |
| 5 | – | CC[C@H](C)[C@H](NC(=O)[C@H](CO)NC(=O)[C@@H](NC(=O)[C@@H](NC(=O)[C@H](CO)NC(=O)[C@@H](NC(=O)[C@H](CC(C)C)NC(=O)[C@@H]1CCCN1C(=O)[C@@H](N)Cc1ccccc1)[C@@H](C)O)[C@@H](C)CC)[C@@H](C)CC)C(=O)O [Her2/neu.649.F1I9] |
